Laboratory results as given in patent US7838509B2, “Methods and compositions to improve germ cell and embryo survival and function” (Bio-Origyn LLC, priority 1995, dated 2010).

Test system: human sperm
Assay: Human sperm cultured in PCAGH or monomeric sugars: sperm motility vs control HTF (Table 3)
Assay type: cell-based
Conditions: for sperm motility compared to control HTF: human sperm; for sperm motility throughout a 24-hr culture period: compared to sperm cultured in arabinose and galactose or in control medium with no polysaccharides
Experimental: Sperm Motility. Sperm motility measurements may be performed by subjective visual determination using a phase contrast microscope to group sperm into total percent motile (swimming), and total percent progressively motile (swimming forward). AIso the speed of those sperm which are progressively motile is determined, i.e., fast, medium, slow.
Alternatively, CASA can be used to objectively determine the motility characteristics of individual sperm cells in a sample (Davis, Infertility & Reproductive Medicine Clinics 3:341, 1992). A 7 μl sperm sample is placed onto a slide or chamber designed for CASA, and the computer tracks individual sperm cells and determines their motility as to speed over distance. Data is then expressed as percent motile, and specific measurements are given for parameters, such as mean path velocity and track speed. The measurements of velocity and linearity correlate with future fertility in several species studied.
Samples containing sperm are incubated at 37° C. (human) or 39° C. (animal) in 5% CO2 and humidified air. At various timed intervals, sperm survival rate, motility characteristics, functional membrane health and membrane lipid peroxidation levels are determined as described in Example 2.

Compound | sperm motility compared to control HTF (culture time 3 hr) | sperm motility compared to control HTF (culture time 15 hr) | sperm motility compared to control HTF (culture time 24 hr) | sperm motility throughout a 24-hr culture period
O=C[C@H](O)[C@@H](O)[C@@H](O)[C@H](O)CO [galactose, reference compound] | = (Equivalent sperm motility compared to control HTF) | = (Equivalent sperm motility compared to control HTF) | = (Equivalent sperm motility compared to control HTF) | –
galactopyranosylarabinose | + | + | + | superior sperm motility
O=C[C@H](O)[C@@H](O)[C@@H](O)[C@H](O)C(=O)O [galacturonic acid] | + | + | + | superior sperm motility
O=C[C@@H](O)[C@H](O)[C@H](O)CO [arabinose, reference compound] | = (Equivalent sperm motility compared to control HTF) | = (Equivalent sperm motility compared to control HTF) | = (Equivalent sperm motility compared to control HTF) | –
